As a reminder, the Ki is the equilibrium dissociation constant of an inhibitor or competing ligand from its target. A higher Ki goes with weaker binding. The EC50 is the concentration that produces a half-maximal response. Higher therefore signals lower potency in that assay. Usually Kd stands for a measure of binding affinity in units of concentration. The IC50 is the concentration that inhibits the measured activity by half. Low readings indicate greater potency in that assay, high ones weaker potency in that assay.

The record followed here is ChEMBL document CHEMBL3576781, “Substituted Bis-THF Protease Inhibitors with Improved Potency against Highly Resistant Mature HIV-1 Protease PR20” (J Med Chem, 2015).

Each structure is given as a SMILES string. The source made the active and inactive calls. No cut-off for these calls is given here.

Assay [1] concerns the target Protease (Human immunodeficiency virus 1, UniProt Q9YQ12). In words: Inhibition of wild type HIV1 protease.
The subject of assay [2] is Human immunodeficiency virus 1. In words: Antiviral activity against HIV1 LAI infected in human MT2 cells by MTT assay. Type of assay: functional, organism-based. The note with it: Human immunodeficiency virus 1, LAI.
The nature of assay [3]: Inhibition of HIV1 protease PR20 mutant expressed in Escherichia coli BL21 (DE3) incubated for 5 mins followed by Abz-Thr-Ile-Nle-p-nitro-Phe-GlnArg-NH2 substrate addition and measured over 5 mins by microplate reader based assay. Also noted: species or system Human immunodeficiency virus 1.
Assay [4] deals with Human immunodeficiency virus 1. In words: Inhibition of N-terminal autoprocessing of transframe region-comprising HIV1 protease PR20 mutant precursor up to 100 uM by SDS-PAGE method.
The nature of assay [5]: Binding affinity to HIV1 protease PR20 mutant expressed in Escherichia coli BL21 (DE3) assessed as ligand dissociation constant by ITC method. Set-up: species or system Human immunodeficiency virus 1. (In general: Isothermal titration calorimetry measures the heat released or taken up as one component is titrated into another.)
Assay [6] relates to Human immunodeficiency virus 1. In words: Antiviral activity against HIV1 by cell based MTT assay. Type of assay: functional, organism-based. In general terms: Formazan colour is commonly taken as a measure of viable cells.

Sequence of Protease (Q9YQ12 whole entry): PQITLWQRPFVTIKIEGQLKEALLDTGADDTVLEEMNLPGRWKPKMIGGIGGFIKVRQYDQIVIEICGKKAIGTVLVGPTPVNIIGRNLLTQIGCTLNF

As to `CC(C)CN(C[C@@H](O)[C@H](Cc1ccccc1)NC(=O)O[C@H]1CO[C@H]2OCC(F)(F)[C@H]21)S(=O)(=O)c1ccc(N)cc1`, the inhibition constant Ki in assay [1] was 5.8 pM; in assay [3], 1.7 nM. The compound also displayed an EC50 in assay [2] of 3 nM. In addition, the inhibition entry in assay [4] was “inactive”.
Regarding `CC(C)CN(C[C@@H](O)[C@H](Cc1ccccc1)NC(=O)O[C@H]1CO[C@H]2OCC[C@H]21)S(=O)(=O)c1ccc(N)cc1`, the equilibrium dissociation constant (Kd) in assay [5] was determined as 41 nM.
For the compound `COc1ccc(S(=O)(=O)N(CC(C)C)C[C@@H](O)[C@H](Cc2ccccc2)NC(=O)O[C@H]2CO[C@H]3OC[C@H](OC)[C@H]32)cc1`, the Ki worked out at 2.9 pM in assay [1] and 4.3 nM in assay [3]. The same compound displayed an IC50 in assay [6] of 2.4 nM. In addition, in assay [4], the inhibition result was “inactive”.
